Laboratory results as given in the NIST ThermoML archive (doi:10.1016/j.jct.2006.11.001).

Key:
[1] = molar heat capacity at constant pressure; xn = mol fraction of the nth substance listed; conditions: Liquid, thermal relaxation method
[2] = molar heat capacity at constant pressure; conditions: Liquid, thermal relaxation method

CO [methanol] + O
molar heat capacity at constant pressure [J/K/mol], [1]
Conditions	x1 = 0.0496	x1 = 0.101	x1 = 0.1936	x1 = 0.2606	x1 = 0.4949	x1 = 0.7943
280 K, 100 kPa	81.21	82.78	82.72	82.56	79.36	77.85
280 K, 1000 kPa	81.39	83.75	85	85.38	82.11	80.76
280 K, 5000 kPa	82.14	83.95	85.2	84.52	79.61	76.97
320 K, 100 kPa	80.27	84.53	87.9	89.5	89.35	89.22
320 K, 1000 kPa	79.52	83.75	88.52	89.72	89.1	87.76
320 K, 5000 kPa	81.95	85.5	89.76	91.67	88.6	87.76
360 K, 1000 kPa	81.02	84.72	90.8	92.75	94.34	94.47
360 K, 5000 kPa	80.83	84.53	90.59	92.97	93.59	94.47
360 K, 10000 kPa	82.52	86.28	92.87	95.35	95.09	95.92
360 K, 15000 kPa	82.52	86.67	92.25	95.57	95.58	95.63

CO [methanol]
molar heat capacity at constant pressure [J/K/mol], [2]
Conditions	100 kPa	1000 kPa	5000 kPa	10000 kPa	15000 kPa
280 K	77.22	74.02	73.7	–	–
320 K	87.15	85.87	84.27	–	–
360 K	–	97.41	94.2	94.52	97.09
